The record followed here is ChEMBL document CHEMBL3045475, “Sensitivity of Sclerotinia sclerotiorum from oilseed crops to boscalid in Jiangsu Province of China” (Crop Prot, 2009).

Values after ≈ are worked out from the molar mass of the structure shown.

The subject of assay [1] is Sclerotinia sclerotiorum. Put plainly: Antifungal activity against carbendazim-resistant and dimethachlon-sensitive Sclerotinia sclerotiorum ZJ44 assessed as inhibition of mycelial growth after 2 days. The assay is classed as functional, organism-based. The conditions noted are these: ZJ44, 48 h.
The subject of assay [2] is Sclerotinia sclerotiorum. Put plainly: Antifungal activity against carbendazim and dimethachlon-sensitive Sclerotinia sclerotiorum SZ62 assessed as inhibition of mycelial growth after 2 days. The format is functional, organism-based. The conditions noted are these: SZ62, 48 h.
Assay [3] deals with Sclerotinia sclerotiorum. The experiment in a line: Antifungal activity against carbendazim-resistant and dimethachlon-resistant Sclerotinia sclerotiorum ZJ288-2 assessed as inhibition of mycelial growth after 2 days. The conditions noted are these: ZJ288-2, 48 h. The format is functional, organism-based.
Assay [4] has as its system Sclerotinia sclerotiorum. Put plainly: Antifungal activity against carbendazim-resistant and dimethachlon-sensitive Sclerotinia sclerotiorum ZJ47 assessed as inhibition of mycelial growth after 2 days. The assay is classed as functional, organism-based. The conditions noted are these: ZJ47, 48 h.
The subject of assay [5] is Sclerotinia sclerotiorum. The experiment in a line: Antifungal activity against carbendazim and dimethachlon-sensitive Sclerotinia sclerotiorum YZ114 assessed as inhibition of mycelial growth after 2 days. The assay is classed as functional, organism-based. The conditions noted are these: YZ114, 48 h.
In assay [6] the test system is Sclerotinia sclerotiorum. Put plainly: Antifungal activity against carbendazim-resistant and dimethachlon-resistant Sclerotinia sclerotiorum CZ57-3 assessed as inhibition of mycelial growth after 2 days. The assay is classed as functional, organism-based. The conditions noted are these: CZ57-3, 48 h.
The subject of assay [7] is Sclerotinia sclerotiorum. The experiment in a line: Antifungal activity against Sclerotinia sclerotiorum in PDA plates assessed as inhibition of mycelial growth after 2 days. The assay is classed as functional, organism-based. The conditions noted are these: 48 h.
Assay [8] has as its system Sclerotinia sclerotiorum. The experiment in a line: Antifungal activity against carbendazim-resistant and dimethachlon-resistant Sclerotinia sclerotiorum ZJ288-3 assessed as inhibition of mycelial growth after 2 days. The format is functional, organism-based. The conditions noted are these: ZJ288-3, 48 h.
Assay [9] concerns Sclerotinia sclerotiorum. Put plainly: Antifungal activity against carbendazim-resistant and dimethachlon-sensitive Sclerotinia sclerotiorum YC35 assessed as inhibition of mycelial growth after 2 days. The format is functional, organism-based. The conditions noted are these: YC35, 48 h.
For assay [10], the system named is Sclerotinia sclerotiorum. The experiment in a line: Antifungal activity against carbendazim and dimethachlon-sensitive Sclerotinia sclerotiorum SZ47 assessed as inhibition of mycelial growth after 2 days. The assay is classed as functional, organism-based. The conditions noted are these: SZ47, 48 h.
In assay [11] the test system is Sclerotinia sclerotiorum. The experiment in a line: Antifungal activity against Sclerotinia sclerotiorum in oilseed rape field assessed as disease control at 80/ha measured 1 week before harvest. The assay is classed as functional.
Assay [12] has as its system Sclerotinia sclerotiorum. Put plainly: Antifungal activity against Sclerotinia sclerotiorum in oilseed rape field assessed as disease control at 250/ha measured 1 week before harvest. The assay is classed as functional.
The subject of assay [13] is Sclerotinia sclerotiorum. Put plainly: Antifungal activity against carbendazim-resistant and dimethachlon-resistant Sclerotinia sclerotiorum ZJ288-1 assessed as inhibition of mycelial growth after 2 days. The format is functional, organism-based. The conditions noted are these: ZJ288-1, 48 h.
Assay [14] deals with Sclerotinia sclerotiorum. The experiment in a line: Antifungal activity against Sclerotinia sclerotiorum in czapek medium assessed as inhibition of mycelial growth after 2 days. The format is functional, organism-based. The conditions noted are these: 48 h.
Assay [15] deals with Sclerotinia sclerotiorum. Put plainly: Antifungal activity against Sclerotinia sclerotiorum in oilseed rape field assessed as disease control at 125/ha measured 1 week before harvest. The format is functional.
Assay [16] relates to Sclerotinia sclerotiorum. The experiment in a line: Antifungal activity against carbendazim-resistant and dimethachlon-resistant Sclerotinia sclerotiorum CZ57-1 assessed as inhibition of mycelial growth after 2 days. The format is functional, organism-based. The conditions noted are these: CZ57-1, 48 h.
For assay [17], the system named is Sclerotinia sclerotiorum. The experiment in a line: Antifungal activity against carbendazim-resistant and dimethachlon-sensitive Sclerotinia sclerotiorum ZJ288 assessed as inhibition of mycelial growth after 2 days. The assay is classed as functional, organism-based. The conditions noted are these: ZJ288, 48 h.
The test system of assay [18] is Sclerotinia sclerotiorum. The experiment in a line: Antifungal activity against carbendazim-resistant and dimethachlon-sensitive Sclerotinia sclerotiorum CZ57 assessed as inhibition of mycelial growth after 2 days. The assay is classed as functional, organism-based. The conditions noted are these: CZ57, 48 h.
Assay [19] concerns Sclerotinia sclerotiorum. The experiment in a line: Antifungal activity against carbendazim and dimethachlon-sensitive Sclerotinia sclerotiorum YZ116 assessed as inhibition of mycelial growth after 2 days. The assay is classed as functional, organism-based. The conditions noted are these: YZ116, 48 h.
Assay [20] relates to Sclerotinia sclerotiorum. Put plainly: Antifungal activity against carbendazim and dimethachlon-sensitive Sclerotinia sclerotiorum YZ112 assessed as inhibition of mycelial growth after 2 days. The conditions noted are these: YZ112, 48 h. The format is functional, organism-based.
Assay [21] deals with Sclerotinia sclerotiorum. Put plainly: Antifungal activity against Sclerotinia sclerotiorum in oilseed rape field assessed as disease control at 187.5/ha measured 1 week before harvest. The assay is classed as functional.
Assay [22] concerns Sclerotinia sclerotiorum. The experiment in a line: Antifungal activity against carbendazim-resistant and dimethachlon-sensitive Sclerotinia sclerotiorum TZ83 assessed as inhibition of mycelial growth after 2 days. The assay is classed as functional, organism-based. The conditions noted are these: TZ83, 48 h.
Assay [23] deals with Sclerotinia sclerotiorum. The experiment in a line: Antifungal activity against carbendazim-resistant and dimethachlon-resistant Sclerotinia sclerotiorum CZ57-2 assessed as inhibition of mycelial growth after 2 days. The format is functional, organism-based. The conditions noted are these: CZ57-2, 48 h.
The test system of assay [24] is Sclerotinia sclerotiorum. The experiment in a line: Antifungal activity against carbendazim-resistant and dimethachlon-sensitive Sclerotinia sclerotiorum SZ48 assessed as inhibition of mycelial growth after 2 days. The format is functional, organism-based. The conditions noted are these: SZ48, 48 h.
Assay [25] concerns Sclerotinia sclerotiorum. The experiment in a line: Antifungal activity against Sclerotinia sclerotiorum in synthetic medium assessed as inhibition of mycelial growth after 2 days. The format is functional, organism-based. The conditions noted are these: 48 h.
For assay [26], the system named is Sclerotinia sclerotiorum. The experiment in a line: Antifungal activity against Sclerotinia sclerotiorum in oilseed rape field assessed as disease control at 750/ha measured 1 week before harvest. The format is functional.
Assay [27] concerns Sclerotinia sclerotiorum. Put plainly: Antifungal activity against Sclerotinia sclerotiorum in oilseed rape field assessed as disease control at 690/ha measured 1 week before harvest. The format is functional.

With `O=C(Nc1ccccc1-c1ccc(Cl)cc1)c1cccnc1Cl` [BOSCALID], the EC50 in the assay on Sclerotinia sclerotiorum [1] was 0.223 µg/mL (≈ 0.65 µM); with Sclerotinia sclerotiorum [2] it was 0.17 µg/mL (≈ 0.495 µM); in the assay on Sclerotinia sclerotiorum [3] it was 0.126 µg/mL (≈ 0.367 µM); in the assay with Sclerotinia sclerotiorum [4], 0.188 µg/mL (≈ 0.548 µM); in the assay with Sclerotinia sclerotiorum [5], 0.195 µg/mL (≈ 0.568 µM); in the assay on Sclerotinia sclerotiorum [6] it was 0.163 µg/mL (≈ 0.475 µM). For the same compound, the EC50 came to 0.17 µg/mL (≈ 0.495 µM) with Sclerotinia sclerotiorum [7]; 0.262 µg/mL (≈ 0.763 µM) in the assay with Sclerotinia sclerotiorum [8]; 0.195 µg/mL (≈ 0.568 µM) with Sclerotinia sclerotiorum [9]; 0.181 µg/mL (≈ 0.527 µM) with Sclerotinia sclerotiorum [10]; 0.195 µg/mL (≈ 0.568 µM) in the assay with Sclerotinia sclerotiorum [13]; 0.13 µg/mL (≈ 0.379 µM) in the assay on Sclerotinia sclerotiorum [14]. Besides, the EC50 in the assay on Sclerotinia sclerotiorum [16] is 0.115 µg/mL (≈ 0.335 µM); with Sclerotinia sclerotiorum [17] it was 0.18 µg/mL (≈ 0.524 µM); in the assay with Sclerotinia sclerotiorum [18], 0.186 µg/mL (≈ 0.542 µM); with Sclerotinia sclerotiorum [19], 0.195 µg/mL (≈ 0.568 µM); with Sclerotinia sclerotiorum [20], 0.211 µg/mL (≈ 0.615 µM); in the assay on Sclerotinia sclerotiorum [22], 0.19 µg/mL (≈ 0.554 µM). Further, the EC50 in the assay on Sclerotinia sclerotiorum [23] came out at 0.183 µg/mL (≈ 0.533 µM); with Sclerotinia sclerotiorum [24], 0.168 µg/mL (≈ 0.489 µM); with Sclerotinia sclerotiorum [25] it was 0.12 µg/mL (≈ 0.35 µM). The Activity in the assay on Sclerotinia sclerotiorum [11] is reported as 49.7%; in the assay with Sclerotinia sclerotiorum [12], 75.1%; in the assay with Sclerotinia sclerotiorum [15], 65.2%; in the assay on Sclerotinia sclerotiorum [21], 69%.
As for `COC(=O)Nc1nc2ccccc2[nH]1` [CARBENDAZIM], the EC50 was more than 100 µg/mL in the assay with Sclerotinia sclerotiorum [1]; 0.186 µg/mL (≈ 0.973 µM) with Sclerotinia sclerotiorum [2]; more than 100 µg/mL in the assay on Sclerotinia sclerotiorum [3]; more than 100 µg/mL with Sclerotinia sclerotiorum [4]; 0.134 µg/mL (≈ 0.701 µM) with Sclerotinia sclerotiorum [5]; more than 100 µg/mL in the assay on Sclerotinia sclerotiorum [6]. The EC50 is more than 100 µg/mL in the assay on Sclerotinia sclerotiorum [8]; more than 100 µg/mL in the assay on Sclerotinia sclerotiorum [9]; 0.177 µg/mL (≈ 0.926 µM) with Sclerotinia sclerotiorum [10]; more than 100 µg/mL with Sclerotinia sclerotiorum [13]; more than 100 µg/mL with Sclerotinia sclerotiorum [16]; 0.147 µg/mL (≈ 0.769 µM) in the assay on Sclerotinia sclerotiorum [17]. For the same compound, the EC50 with Sclerotinia sclerotiorum [18] is 0.168 µg/mL (≈ 0.879 µM); in the assay with Sclerotinia sclerotiorum [19], 0.137 µg/mL (≈ 0.717 µM); in the assay on Sclerotinia sclerotiorum [20], 0.106 µg/mL (≈ 0.554 µM); in the assay with Sclerotinia sclerotiorum [22] it was more than 100 µg/mL; in the assay on Sclerotinia sclerotiorum [23], more than 100 µg/mL; with Sclerotinia sclerotiorum [24], more than 100 µg/mL. Also, the Activity in the assay with Sclerotinia sclerotiorum [26] was found to be 18.9%.
With `O=C1CCC(=O)N1c1cc(Cl)cc(Cl)c1` [DIMETHACHLON], the EC50 in the assay on Sclerotinia sclerotiorum [1] turned out to be 0.317 µg/mL (≈ 1.3 µM); in the assay on Sclerotinia sclerotiorum [2], 0.351 µg/mL (≈ 1.44 µM); in the assay on Sclerotinia sclerotiorum [3] it was 86.8 µg/mL (≈ 356 µM); with Sclerotinia sclerotiorum [4], 0.367 µg/mL (≈ 1.5 µM); with Sclerotinia sclerotiorum [5], 0.365 µg/mL (≈ 1.5 µM); in the assay on Sclerotinia sclerotiorum [6] it was 125 µg/mL (≈ 511 µM). For the same compound, the EC50 with Sclerotinia sclerotiorum [8] was 68 µg/mL (≈ 279 µM); with Sclerotinia sclerotiorum [9] it was 0.306 µg/mL (≈ 1.25 µM); with Sclerotinia sclerotiorum [10], 0.321 µg/mL (≈ 1.32 µM); in the assay on Sclerotinia sclerotiorum [13] it was 92.4 µg/mL (≈ 378 µM); with Sclerotinia sclerotiorum [16] it was 166 µg/mL (≈ 682 µM); in the assay on Sclerotinia sclerotiorum [17], 0.397 µg/mL (≈ 1.63 µM). The EC50 in the assay with Sclerotinia sclerotiorum [18] was found to be 0.406 µg/mL (≈ 1.66 µM); with Sclerotinia sclerotiorum [19] it was 0.346 µg/mL (≈ 1.42 µM); in the assay with Sclerotinia sclerotiorum [20], 0.401 µg/mL (≈ 1.64 µM); with Sclerotinia sclerotiorum [22], 0.335 µg/mL (≈ 1.37 µM); in the assay with Sclerotinia sclerotiorum [23], 152 µg/mL (≈ 622 µM); in the assay on Sclerotinia sclerotiorum [24], 0.364 µg/mL (≈ 1.49 µM). Moreover, in the assay on Sclerotinia sclerotiorum [27], the Activity is 44.6%.

As a reminder, the EC50 is the concentration that produces a half-maximal response.
